From patent US20260166097A1, “METHODS AND COMPOSITIONS CONCERNING BACTEROIDES OVATUS” (BOARD OF REGENTS, THE UNIVERSITY OF TEXAS SYSTEM, priority 2022, published 2026)

How the values were obtained:
[1] = system: steroid-refractory GVHD; details: human, in vivo
Text: The inventors examined patient antibiotic treatment histories during the period from allo-HSCT to the onset of aGI-GVHD and looked for associations between treatment with various antibiotic classes and steroid response for GVHD (FIG. 3A). In our institution, quinolone, cephalosporine, carbapenem and intravenous vancomycin were frequently used in our cohort (FIG. 3B).
A total of 37 aGI-GVHD patients who underwent allo-HSCT during 2017 to 2019 at MD Anderson Cancer Center provided stool samples for the biorepository, and these patient stool samples were analyzed retrospectively as a discovery cohort. Acute GVHD was diagnosed by clinical and/or pathological findings and graded according to standard criteria^40. […] The inventors determined treatment response as previously reported^19: briefly, a lack of response on the basis of organ assessment after at least 3 days of high-dose systemic glucocorticoid therapy; a lack of improvement after 7 days; or treatment failure during steroid tapering or an inability to taper the dose to <0.5 mg/kg/day of methylprednisolone. […] As another cohort, a total of 16 aGI-GVHD patients who underwent allo-HSCT during 2017 to 2020 at MD Anderson Cancer Center provided stool samples collected on day 14 after allo-HSCT for the biorepository, and these patient stool samples were analyzed retrospectively. […]

[2] = system: allo-HSCT mice; details: cited from earlier work

CCCCCCCCCC(=O)N[C@@H](Cc1c[nH]c2ccccc12)C(=O)N[C@H](CC(N)=O)C(=O)N[C@@H](CC(=O)O)C(=O)N[C@@H]1C(=O)NCC(=O)N[C@@H](CCCN)C(=O)N[C@@H](CC(=O)O)C(=O)N[C@H](C)C(=O)N[C@@H](CC(=O)O)C(=O)NCC(=O)N[C@H](CO)C(=O)N[C@@H]([C@H](C)CC(=O)O)C(=O)N[C@@H](CC(=O)c2ccccc2N)C(=O)O[C@@H]1C [daptomycin]
Association of antibiotic exposure with steroid-refractory GVHD [1]: significantly associated with steroid-refractory GVHD

C[C@@H](O)[C@H]1C(=O)N2C(C(=O)O)=C(S[C@@H]3CN[C@H](C(=O)N(C)C)C3)[C@H](C)[C@H]12 [meropenem]
Colonic GVHD severity ([2]; allo-HSCT mice treated with meropenem in drinking water compared to mice not treated): aggravated colonic GVHD

O=C[C@H](O)[C@@H](O)[C@H](O)CO [xylose]
GVHD severity ([2]; supplementation in meropenem-treated allogeneic mice): ameliorates GVHD severity
